Key:
[1] = target: T1, native bRGR in bRPE microsomal membranes (Bos taurus, UniProt P47803); assay: NaBH4 trapping, HPLC and LC-MS/MS after illumination; format: biochemical; settings: photoisomerization at 530 nm, then Schiff-base hydrolysis; pH 7.4, 140 mM NaCl; native microsomes
T1 construct: gene RGR; native, untagged, in bovine RPE microsomal membranes; chromophore site given as Lys256
T1 sequence (P47803 1-291): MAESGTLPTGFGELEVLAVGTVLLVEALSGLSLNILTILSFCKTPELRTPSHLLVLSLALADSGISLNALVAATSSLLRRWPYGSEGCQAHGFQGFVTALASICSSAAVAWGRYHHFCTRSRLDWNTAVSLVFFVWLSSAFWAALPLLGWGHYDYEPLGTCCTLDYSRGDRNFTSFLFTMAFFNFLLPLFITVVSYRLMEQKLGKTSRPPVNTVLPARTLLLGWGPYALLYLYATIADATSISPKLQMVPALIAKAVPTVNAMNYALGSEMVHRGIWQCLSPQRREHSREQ

[2] = target: T2, hRed-cone opsin (Homo sapiens, UniProt P04000); assay: UV-Vis pigment spectrum; NaBH4 trapping and LC-MS/MS of retinyl peptide and retinyl-Lys; format: binding; settings: covalent Schiff base to helix VII Lys; dark state; LMNG
T2 construct: gene OPN1LW; recombinant, purified in LMNG; details only in supplement
T2 sequence (P04000 1-364): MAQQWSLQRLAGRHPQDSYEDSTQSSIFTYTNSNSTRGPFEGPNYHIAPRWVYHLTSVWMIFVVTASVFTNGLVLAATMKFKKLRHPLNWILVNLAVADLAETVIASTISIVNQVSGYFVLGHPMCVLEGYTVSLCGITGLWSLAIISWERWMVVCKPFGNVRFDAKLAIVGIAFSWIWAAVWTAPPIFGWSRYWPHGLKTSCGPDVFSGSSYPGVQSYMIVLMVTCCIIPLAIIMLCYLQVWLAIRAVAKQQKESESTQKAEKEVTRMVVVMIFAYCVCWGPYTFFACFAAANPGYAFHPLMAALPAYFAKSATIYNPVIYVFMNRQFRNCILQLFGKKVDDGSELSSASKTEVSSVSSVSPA

[3] = target: T3, hBlue-cone opsin (Homo sapiens, UniProt P03999); assay: as above; format: binding; settings: covalent Schiff base to helix VII Lys; dark state; LMNG
T3 construct: gene OPN1SW; recombinant, purified in LMNG; details only in supplement
T3 sequence (P03999 1-345): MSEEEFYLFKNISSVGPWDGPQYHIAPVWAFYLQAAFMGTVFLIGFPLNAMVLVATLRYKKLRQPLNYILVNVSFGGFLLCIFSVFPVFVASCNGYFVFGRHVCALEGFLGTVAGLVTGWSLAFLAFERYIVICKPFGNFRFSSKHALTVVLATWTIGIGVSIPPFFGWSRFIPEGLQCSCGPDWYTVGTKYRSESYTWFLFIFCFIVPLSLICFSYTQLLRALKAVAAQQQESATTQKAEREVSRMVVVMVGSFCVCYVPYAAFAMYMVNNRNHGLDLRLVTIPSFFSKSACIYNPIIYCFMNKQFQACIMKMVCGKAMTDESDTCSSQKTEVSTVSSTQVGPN

[4] = target: T4, bRho (Bos taurus, UniProt P02699); assay: as above; format: binding; settings: covalent Schiff base to helix VII Lys; dark state; LMNG
T4 construct: gene RHO; native, from bovine rod outer segments, purified in LMNG

[5] = target: T5, bRGR (recombinant, 1D4-tagged) (Bos taurus, UniProt P47803); assay: UV-Vis pigment spectrum; NaBH4 trapping and LC-MS/MS of retinyl peptide; format: binding; settings: covalent Schiff base at Lys256; LMNG micelles; before illumination
T5 construct: gene RGR; chromophore site given as Lys256
T5 sequence (P47803 1-291): T1 sequence (P47803 1-291)

[6] = target: T1, native bRGR in bRPE microsomal membranes; assay: NaBH4 trapping, proteinase K or pronase digestion, LC-MS/MS; format: binding; settings: covalent Schiff base at Lys256; native bovine RPE microsomes; before illumination

T4 sequence (P02699 whole entry): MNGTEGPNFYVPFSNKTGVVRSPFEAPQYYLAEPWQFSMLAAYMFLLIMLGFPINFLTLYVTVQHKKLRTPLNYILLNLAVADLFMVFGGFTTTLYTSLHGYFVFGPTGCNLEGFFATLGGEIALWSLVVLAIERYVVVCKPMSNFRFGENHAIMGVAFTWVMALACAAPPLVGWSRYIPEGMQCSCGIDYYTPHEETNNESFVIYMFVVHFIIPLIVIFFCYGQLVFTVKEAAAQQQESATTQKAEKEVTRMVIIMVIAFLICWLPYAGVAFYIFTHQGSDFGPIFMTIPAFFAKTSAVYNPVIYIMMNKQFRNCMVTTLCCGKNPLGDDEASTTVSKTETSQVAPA

| SMILES | NaBH4 trapping, HPLC and LC-MS/MS after illumination [1] | UV-Vis pigment spectrum; NaBH4 trapping and LC-MS/MS of retinyl peptide and reti [2] | UV-Vis pigment spectrum; NaBH4 trapping and LC-MS/MS of retinyl peptide and reti [3] | UV-Vis pigment spectrum; NaBH4 trapping and LC-MS/MS of retinyl peptide and reti [4] | UV-Vis pigment spectrum; NaBH4 trapping and LC-MS/MS of retinyl peptide [5] | NaBH4 trapping, proteinase K or pronase digestion, LC-MS/MS [6] |
| --- | --- | --- | --- | --- | --- | --- |
| CC1=C(/C=C/C(C)=C/C=C\C(C)=C\C=O)C(C)(C)CCC1 [11-cis-retinal] | rapid hydrolytic production of 11-cis-retinal by bRGR in native membranes was recapitulated in this study | the resultant N^ε-retinyl-Lys was predominantly in the 11-cis configuration | the resultant N^ε-retinyl-Lys was predominantly in the 11-cis configuration | the resultant N^ε-retinyl-Lys was predominantly in the 11-cis configuration | – | – |
| CC1=C(/C=C/C(C)=C/C=C/C(C)=C/C=O)C(C)(C)CCC1 [all-trans-retinal] | – | – | – | – | recombinantly produced bRGR adducted with all-trans-retinal was immunopurified in lauryl maltose neopentyl glycol (LMNG) micelles | Microsomal bRGR reconstituted with slight excess of all-trans-retinal was analyzed by LC-MS/MS |

From paper PMC10877631, “Retinylidene chromophore hydrolysis from mammalian visual and non-visual opsins” (The Journal of Biological Chemistry, 2024)
